Reference: paper PMC10945332, “Precision peptide theranostics: developing N- to C-terminus optimized theranostics targeting cholecystokinin-2 receptor” (Theranostics, 2024)
Read-outs that look alike come from different tables or passages of the source. Where a SMILES comes first, the peptide text is derived from it. [ ]: non-standard residue; d: D form. The star is where a group is joined. DOTA = O=C(O)CN1CCN(CC(=O)O)CCN(CC(=O)*)CCN(CC(=O)O)CC1; NMe1Nal = CN[C@@H](Cc1cccc2ccccc12)C(=O)O; NMeNle = CCCC[C@H](NC)C(=O)O; Sar = CNCC(=O)O

What was measured:
CCK2R = tested on: CCK2R; design: method as in PMID 33826325; conditions: peptide with gallium coordinated DOTA at the N-terminus; previously assessed; read-out: affinity for CCK2R; cited from earlier work
A431-CCK2R tumors [1] = conditions: A431-CCK2R/NSG mouse model; 1 hour post-injection; data shown for [177Lu]Lu-CP04; cited from earlier work
AR42J xenografts = conditions: cited from earlier work
human CCK2R = target: T1, human CCK2R (Homo sapiens, UniProt P32239); assay: Competitive binding against [177Lu]Lu-DOTA-CP04 in A431-CCK2R cells
T1 construct: stably transfected to over-express the human full-length CCK2R (A431-CCK2R); expressed in transfected cells
T1 sequence (P32239 1-447): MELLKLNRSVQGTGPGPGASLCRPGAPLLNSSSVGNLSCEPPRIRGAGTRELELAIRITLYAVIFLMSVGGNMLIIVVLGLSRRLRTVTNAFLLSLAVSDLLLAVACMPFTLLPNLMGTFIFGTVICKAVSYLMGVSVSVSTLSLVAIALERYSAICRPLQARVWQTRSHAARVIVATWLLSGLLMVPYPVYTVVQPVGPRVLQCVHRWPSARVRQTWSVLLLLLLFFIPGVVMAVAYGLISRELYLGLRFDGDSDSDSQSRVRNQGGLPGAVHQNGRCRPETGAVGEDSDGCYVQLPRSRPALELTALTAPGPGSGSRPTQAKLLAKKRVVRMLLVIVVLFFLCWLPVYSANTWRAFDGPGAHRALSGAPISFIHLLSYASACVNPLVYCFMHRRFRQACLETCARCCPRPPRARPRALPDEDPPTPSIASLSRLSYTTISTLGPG
Method: Materials and Methods: Biology […]
In Vitro CCK2R-Ligand Competitive Binding Assays
All CCK2R binding experiments were conducted using A431 (human epidermoid carcinoma) […]
cells stably transfected to over-express the human full-length CCK2R (A431-CCK2R) (gifted […]
by Dr. Elisabeth von Guggenberg, Medizinische Universität Innsbruck).[41] As a negative […]
control, A431 cells stably transfected with an empty vector were analysed simultaneously […]
(A431-EV). All A431 cells were maintained in DMEM (Gibco, Australia) media supplemented […]
with 10% foetal calf serum and 250 µg/mL G418 as described previously.[32]
The affinity of all peptides for the CCK2R was evaluated using competitive binding assays […]
Briefly, 48 hours before the experiment […]
cells were plated at a density of 300,000 cells per well in 12 well plates. On the day of the […]
experiment, linear peptides were diluted in DMEM supplemented with 1% foetal calf serum to […]
DOTA-CP04 was added to each dilution. Cells were washed twice in ice-cold binding buffer […]
(DMEM supplemented with 1% foetal calf serum) and resuspended in 1 mL of the pre-prepared […]
peptide mix before being incubated at room temperature for 1 hour. Post-incubation the media […]
was removed and kept for analysis (unbound fraction) and the cells were washed twice in ice- […]
cold PBS which was pooled with the unbound fraction. Finally, 1 M NaOH (150µL) was added […]
to the wells and allowed to incubate for 5 min before lysates were collected (bound fraction).
A small volume of lysate was kept aside to determine protein concentration using the Pierce® BCA protein assay kit (Thermo Fisher, Australia). All samples were analysed using the Perkin […]
normalised according to protein concentration. Half maximal inhibitory concentration (IC50) was determined using nonlinear regression calculated using Gr aphPad Prism Software (GraphPad Software, California, USA). […]

[2] = type: physicochemical
Method: Lipophilicity, expressed as the octanol-water partition coefficient, constitutes an important property in drug action, influencing both pharmacokinetic and pharmacodynamics processes. The distribution coefficient (LogD7.4) of [^68Ga]Ga-DOTA-peptides was determined by measuring radioactivity distribution in the aqueous phase (phosphate buffer pH7.4) and the organic phase (n-octanol). […]
To determine the distribution coefficient (logD 7.4), 68Ga radiolabeled peptides [68Ga]Ga-DOTA-GA4, [68Ga]Ga-DOTA-GA7, and [68Ga]Ga-DOTA-GA11–GA13 were diluted to approximately 20 pmol/mL in PBS (pH 7.4) and an equal volume of n-octanol was added. The mixture was vortexed vigorously for 10 cycles of 1 min at room temperature before being centrifuged for 6 min to separate the two phases. Equal volumes from each phase were aliquoted into individual counting tubes and analysed for 1 min using the Perkin Elmer 2480 Wizard2™ gamma counter (PerkinElmer, Massachusetts, USA). The distribution coefficient was calculated using the following equation LogD = […]. […]

[3] = type: in vitro ADME, mouse
Method: Metabolic stability is an important determinant of the efficacy of peptide radiopharmaceuticals and their progression as promising theranostic candidates. In vitro, metabolic degradation through hepatic and renal enzymes can be assessed by utilizing liver and kidney tissue homogenates. Radiolabeled peptides [^68Ga]Ga-DOTA-GA4, and D-Ala substituted variants [^68Ga]Ga-DOTA-GA7, [^68Ga]Ga-DOTA-GA11-GA13 were incubated in liver and kidney mouse homogenates, in human serum at 37°C, and in HEPES buffer (pH 7.4) as a negative control. Following a time course experiment, the metabolites were analyzed using HPLC to quantify the % breakdown of the respective parent peptide. […]
To assess the stability of 68Ga radiolabeled peptides against enzymatic degradation, duplicate samples (750-900 pmol/mL, 2-5MBq) were incubated at 37 ℃ with pooled human serum, 15% […]
mouse kidney homogenate, 30% mouse liver homogenate or 20 mM HEPES, pH 7.3 (control).
Human blood was collected, and serum prepared using SSTII advance vacutainer tubes according to the manufacturer’s instructions (Becton Dickinson, New Jersey, USA). Mouse kidney and liver homogenates were prepared by washing the tissues in ice-cold HEPES buffer, pH 7.3 and placing them in pre-chilled tubes containing HEPES buffer and 2.38 mm metal beads (Mo-Bio Laboratories, Hilden, Germany). Tissues were homogenised using the PowerLyzer24 homogeniser (Qiagen, Hilden, Germany) according to the manufacturer’s instructions. 68Ga radiolabeled peptides were then incubated with the various lysates at 37 ℃ and samples were collected at 15, 30, 60 and 90 min. Reactions were terminated by addition of an equal volume of acetonitrile and centrifugation for 2 min at 15,000 rpm. Supernatants were diluted in water before being analysed by HPLC using a Kinetex C18 XB column (5µm

[4] = mouse, in vivo
Method: (§1) In order to assess these promising ligands as potential theranostics, the library of [^68Ga]Ga-DOTA-peptides was evaluated using static small animal PET imaging and quantifying biodistribution studies. This study was performed to investigate tumor uptake as well as the accumulation of radioligands in other organs. Mice bearing A431-CCK2R tumors were imaged at 1- and 2 hours post tracer injection, and tracer biodistribution was evaluated at the 1 hour and 2.5 hour time points to quantify tumor uptake and retention. […]
(§2) Small Animal PET Imaging and Biodistribution Studies
(§3) Female NSG mice (age 11-14 weeks) were sourced from Animal Resources Centre, (Canning Vale, Western Australia) and were inoculated subcutaneously on the right flank with 1-3 x 106 […]
(§4) A431-CCK2R cells in PBS:Matrigel (1:1). […]
(§5) Mice were assigned to imaging and/or biodistribution groups (tumour volumes: 119-327 mm3).
(§6) The respective 68Ga labelled tracer (1.63–3.81 MBq, 170µL, 13.7–14.2 pmoles) containing vehicle solution (75µL, DMSO:Tween 80: water, 2:2:6 v/v/v) was then administered to mice intravenously via tail vein injection. Three mice were euthanized for biodistribution 1 hour post injection (n=3) and selected tissues were excised, weighed, and counted using a Capintec (Captus 4000e) gamma counter. Three mice were anaesthetised using 1.5% isoflurane and imaged at 1 hour (n=3) and 2 hours (n=3) with a G8 Small Animal PET/CT scanner (Perkin […]
(§7) Elmer/Sofie Biosciences). A 10 min static PET scan was acquired, followed immediately by a CT scan (Supplementary Data, pS51–S55). PET images were acquired using the G8 acquisition engine software and reconstructed using a 3D maximal likelihood and expectation maximization (ML-EM) algorithm. PET images were analysed using VivoQuant software, version 3.0 (inviCRO Imaging Services and Software) to quantify maximum standardised uptake value in regions of interest (SUVmax). Background regions for imaging experiments were calculated by quantitating mean standardised uptake value (SUVmean) of the abdomen and gut region. The region of interest was selected due to low uptake in abdomen/gut during imaging. After imaging the 2-hour time point, mice organs were harvested for biodistribution […]
(§8) For blocking CCK2R binding a solution of N-[(3R)-2,3-Dihydro-1-[2-(2-methylphenyl)-2-oxoethyl]-2-oxo-5-phenyl-1H-1,4-benzodiazepin-3-yl]-N′-(3-methylphenyl)-urea (YM022; Sigma Aldrich) was used. YM022 (75µL of a 1 mg/ml solution constituting DMSO:Tween 80: water, 2:2:6 v/v/v) was added to the respective 68Ga labelled tracer (1.41–3.61 MBq, 100 µL, 13.7–14.2 pmoles) and this mixture ([…]) was administered in three mice intravenously via tail vein injection and organs harvested at 1 hour post injection for biodistribution analysis, as above.
(§9) All animal experiments were performed with the approval of the Peter MacCallum Cancer Centre Animal Experimentation Ethics Committee and in accordance with the Australian code for the care and use of animals for scientific purposes, 8th Edition, 2013 (AEEC Approval

in vivo = conditions: female, NSG, mouse, iv, total radioactivity; for SUV at 2 h: SUVmax
Method: as §1, §2, §3, §4, §5, §6, §7, §8, §9

A431-CCK2R tumors [5] = assay: in vivo; conditions: female, NSG, mouse, iv, 1 h
Method: as §1, §2, §3, §4, §5, §6, §7, §8, §9

[6] = 3 mg/kg, Uptake in A431-CCK2R Tumors, 1 hr Blocked
[7] = Uptake in A431-CCK2R Tumors, 1 hr

Row | Structure (SMILES) | logD [2] | metabolites in kidney homogenates [3] | metabolites in liver homogenates [3] | tissue uptake at 1 h [4, 6] [%ID/g] | tissue uptake at 1 h [4, 7] [%ID/g] | tissue uptake at 2.5 h ([4]; Uptake in A431-CCK2R Tumors) [%ID/g] | tissue uptake at 1 h ([4]; Uptake in Organs: Blood) [%ID/g] | tissue uptake at 1 h ([4]; Uptake in Organs: Heart) [%ID/g] | tissue uptake at 1 h ([4]; Uptake in Organs: Kidneys) [%ID/g] | tissue uptake at 1 h ([4]; Uptake in Organs: Liver) [%ID/g] | tissue uptake at 1 h ([4]; Uptake in Organs: Lungs) [%ID/g] | tissue uptake at 1 h ([4]; Uptake in Organs: Muscle) [%ID/g] | tissue uptake at 1 h ([4]; Uptake in Organs: Spleen) [%ID/g] | tissue uptake at 1 h ([4]; Uptake in Organs: Stomach) [%ID/g] | tissue to tissue ratio at 1 h (in vivo) | SUV at 2 h (in vivo) [SUV] | also measured
1 | CSCC[C@H](NC(=O)[C@H](Cc1c[nH]c2ccccc12)NC(=O)CNC(=O)[C@H](Cc1ccc(O)cc1)NC(=O)[C@H](C)NC(=O)[C@@H](CCC(=O)O)NC(=O)[C@@H](CCC(=O)O)NC(=O)[C@@H](CCC(=O)O)NC(=O)[C@@H](CCC(=O)O)NC(=O)[C@@H](CCC(=O)O)NC(=O)[C@H](N)CCC(=O)O)C(=O)N[C@@H](CC(=O)O)C(=O)N[C@@H](Cc1ccccc1)C(N)=O [CP04, reference compound] | – | – | – | – | – | – | – | – | – | – | – | – | – | – | – | – | IC50 (CCK2R): 0.76 nM; Tumor uptake (A431-CCK2R tumors [1]): 2.5 ± 0.3 [62] % ID/g; Tumor uptake (AR42J xenografts; AR42J xenografts, [68Ga]Ga labeled, 1 hour post-injection): 5.5 ± 0.8 [34] % ID/g; IC50 (human CCK2R): 2.33 nM; fold decrease in affinity for CCK2R without gallium coordinated DOTA at the N-terminus (human CCK2R; linear peptide vs its Ga-DOTA form): greater than 3 fold
2 | CCCC[C@@H](C(=O)N[C@@H](CC(=O)O)C(=O)N(C)[C@@H](Cc1cccc2ccccc12)C(N)=O)N(C)C(=O)[C@H](Cc1c[nH]c2ccccc12)NC(=O)CN(C)C(=O)[C@H](Cc1ccc(O)cc1)NC(=O)[C@H](C)NC(=O)[C@@H](CCC(=O)O)NC(=O)[C@@H](CCC(=O)O)NC(=O)[C@@H](CCC(=O)O)NC(=O)[C@@H](CCC(=O)O)NC(=O)[C@@H](CCC(=O)O)NC(=O)[C@@H](CCC(=O)O)NC(=O)CN1CCN(CC(=O)O)CCN(CC(=O)O)CCN(CC(=O)O)CC1 [[^68Ga]Ga-DOTA-GA4, metal not drawn] ({DOTA}-[dE][dE][dE][dE][dE][dE]AY[Sar]W[NMeNle]D[NMe1Nal]-NH2) | -2.97 ± 0.13 | no observable metabolites detected | no observable metabolites detected | 2.05 ± 0.14 | 8.77 ± 1.21 | 7.54 ± 0.5 | 0.92 ± 0.05 | 0.45 ± 0.03 | 20.3 ± 0.89 | 0.51 ± 0.01 | 0.92 ± 0.04 | 0.14 ± 0.01 | 0.62 ± 0.14 | 2.37 ± 0.12 | 11.4 ± 0.9 | 0.38 | Tumor uptake (AR42J xenografts; mouse, in vivo, 1 h): 31.1 ± 5.3 % ID/g
3 | CCCC[C@@H](C(=O)N[C@@H](CC(=O)O)C(=O)N(C)[C@@H](Cc1cccc2ccccc12)C(N)=O)N(C)C(=O)[C@H](Cc1c[nH]c2ccccc12)NC(=O)CN(C)C(=O)[C@H](Cc1ccc(O)cc1)NC(=O)[C@H](C)NC(=O)[C@@H](CCC(=O)O)NC(=O)[C@@H](CCC(=O)O)NC(=O)[C@@H](CCC(=O)O)NC(=O)[C@@H](C)NC(=O)[C@@H](CCC(=O)O)NC(=O)[C@@H](CCC(=O)O)NC(=O)CN1CCN(CC(=O)O)CCN(CC(=O)O)CCN(CC(=O)O)CC1 [[^68Ga]Ga-DOTA-GA13, metal not drawn] ({DOTA}-[dE][dE][dA][dE][dE][dE]AY[Sar]W[NMeNle]D[NMe1Nal]-NH2) | -2.59 ± 0.02 | no observable metabolites detected | no observable metabolites detected | 2.53 ± 0.17 | 9.68 ± 1.02 | 11.4 ± 0.17 | 0.83 ± 0.07 | 0.4 ± 0.03 | 12.3 ± 0.63 | 0.44 ± 0.03 | 0.85 ± 0.11 | 0.16 ± 0.03 | 0.43 ± 0.13 | 1.81 ± 0.12 | 19.3 ± 1.49 | 0.32 | SUVmax (A431-CCK2R tumors [5]): 1.86
